Source: patent US20070117743A1, “New antitumoral compounds” (priority 2003, published 2007)
Where a SMILES comes first, the peptide text is derived from it. Bridges are numbered along the chain shown (N, C = ends). [ ]: non-standard residue; d: D form. The star is where a group is joined. d(aIle) = CC[C@H](C)[C@@H](N)C(=O)O; d(aThr) = C[C@@H](O)[C@@H](N)C(=O)O; Hexanoyl(5-Me) = CC(C)CCCC(=O)*; Orn = NCCC[C@H](N)C(=O)O; Dhb = C/C=C(\N)C(=O)O

Tests used:
Format in all cases: cell-based, human
A-549 = test: SRB colorimetric assay of cell growth and viability, A-549; details: 48 hours exposure; for GI50: read-out: GI50 A-549; for CC50: read-out: LC50 A-549
Excerpt: (§1) The finality of this assay is to interrupt the growth of a “in vitro” tumor cell culture by means a continued exhibition of the cells to the sample to be testing.
(§2) This form of the assay employs 96 well cell culture microplates of 9 mm diameter (Faircloth, 1988; Mosmann, 1983). Most of the cell lines are obtained from American Type Culture Collection (ATCC) derived from different human cancer types.
(§3) Cells are maintained in RPMI 1640 10% FBS, supplemented with 0.1 g/l penicillin and 0.1 g/l streptomycin sulfate and then incubated at 37° C., 5% CO2 and 98% humidity. For the experiments, cells were harvested from subconfluent cultures using trypsin and resuspended in fresh medium before plating.
(§4) Cells are seeded in 96 well microtiter plates, at 5×10^3 cells per well in aliquots of 195 μL medium, and they are allowed to attach to the plate surface by growing in drug free medium for 18 hours. Afterward, samples are added in aliquots of 5 μL in a ranging from 10 to 10^−8 μg/mL, dissolved in DMSO:EtOH:PBS (0.5:0.5:99). After 48 hours exposure, the antitumor effect are measured by the SRB methodology: cells are fixed by adding 50 μL of cold 50% (wt/vol) trichloroacetic acid (TCA) and incubating for 60 minutes at 4° C. Plates are washed with deionized water and dried. One hundred μL of SRB solution (0.4% wt/vol in 1% acetic acid) is added to each microtiter well and incubated for 10 minutes at room temperature. Unbound SRB is removed by washing with 1% acetic acid. Plates are air dried and bound stain is solubilized with Tris buffer. Optical densities are read on a automated spectrophotometric plate reader at a single wavelength of 490 nm.
(§5) The values for mean+/− SD of data from triplicate wells are calculated. Some parameters for cellular responses can be calculated: GI=growth inhibition, TGI=total growth inhibition (cytostatic effect) and LC=cell killing (cytotoxic effect).

SK-MEL-28 = test: SRB colorimetric assay of cell growth and viability, SK-MEL-28; details: 48 hours exposure; for CC50: read-out: LC50 MEL-28
Excerpt: as §1, §2, §3, §4, §5

HT-29 = test: SRB colorimetric assay of cell growth and viability, HT-29; details: 48 hours exposure; for GI50: read-out: GI50 HT-29; for CC50: read-out: LC50 HT-29
Excerpt: as §1, §2, §3, §4, §5

LoVo = test: SRB colorimetric assay of cell growth and viability, LoVo; details: 48 hours exposure; for CC50: read-out: LC50 LOVO
Excerpt: as §1, §2, §3, §4, §5

LoVo-Dox = test: SRB colorimetric assay of cell growth and viability, LoVo-Dox; details: 48 hours exposure; for CC50: read-out: LC50 LOVO-DOX
Excerpt: as §1
A colorimetric type of assay, using sulforhodamine B (SRB) reaction has been adapted for a quantitative measurement of cell growth and viability [following the technique described by Philip Skehan, et al. (1990), New colorimetric cytotoxicity assay for anticancer drug screening, J. Natl. Cancer Inst., 82:1107-1112].
as §2, §3, §4, §5

DU-145 = test: SRB colorimetric assay of cell growth and viability, DU-145; details: 48 hours exposure
Excerpt: as §1, §2, §3, §4, §5

IGROV-1 = test: SRB colorimetric assay of cell growth and viability, IGROV-1; details: 48 hours exposure
Excerpt: as §1, §2, §3, §4, §5

IGROV-ET = test: SRB colorimetric assay of cell growth and viability, IGROV-ET; details: 48 hours exposure; for CC50: read-out: LC50 IGROV-ET
Excerpt: as §1, §2, §3, §4, §5

HeLa = test: SRB colorimetric assay of cell growth and viability, HeLa; details: 48 hours exposure; for CC50: read-out: LC50 HELA
Excerpt: as §1, §2, §3, §4, §5

HeLa-APL = test: SRB colorimetric assay of cell growth and viability, HeLa-APL; details: 48 hours exposure; for CC50: read-out: LC50 HELA-APL
Excerpt: as §1, §2, §3, §4, §5

K-562 = test: SRB colorimetric assay of cell growth and viability, K-562; details: 48 hours exposure; for CC50: read-out: LC50 K-562
Excerpt: as §1, §2, §3, §4, §5

PANC-1 = test: SRB colorimetric assay of cell growth and viability, PANC-1; details: 48 hours exposure; for CC50: read-out: LC50 PANC-1
Excerpt: as §1, §2, §3, §4, §5

SMILES	TGI A-549 (A-549)	GI50 (A-549)	CC50 (A-549)	GI50 (SK-MEL-28)	TGI MEL-28 (SK-MEL-28)	CC50 (SK-MEL-28)	TGI HT-29 (HT-29)	GI50 (HT-29)	CC50 (HT-29)	GI50 (LoVo)	TGI LOVO (LoVo)	CC50 (LoVo)	GI50 (LoVo-Dox)	TGI LOVO-DOX (LoVo-Dox)	CC50 (LoVo-Dox)	GI50 (DU-145)	LC50 (concentration causing 50% net cell kill) (DU-145)	TGI DU-145 (DU-145)	GI50 (IGROV-1)	LC50 (concentration causing 50% net cell killing) (IGROV-1)	also measured
C/C=C1\NC(=O)[C@H](Cc2ccccc2)NC(=O)[C@@H](C(C)C)NC(=O)[C@@H]([C@@H](C)CC)NC(=O)[C@H](NC(=O)[C@H](NC(=O)[C@H](CCCN)NC(=O)[C@H]2CCCN2C(=O)[C@H](NC(=O)[C@@H](NC(=O)[C@@H](NC(=O)[C@@H](CCC(=O)O)NC(=O)CCCC(C)C)[C@@H](C)O)C(C)C)C(C)C)[C@@H](C)CC)[C@@H](C)OC(=O)[C@H](C(C)C)NC1=O [Compound 39, [D-Glu^13]-KF]	6.63E−06 Molar	4.41 µM	6.63 µM	3.39 µM	6.63E−06 Molar	6.63 µM	2.16E−06 Molar	1.2 µM	3.87 µM	0.889 µM	1.72E−06 Molar	3.34 µM	0.889 µM	1.70E−06 Molar	3.26 µM	3.48 µM	6.63 µM	6.63E−06 Molar	1.33 µM	4.11 µM	TGI IGROV (IGROV-1): 2.33E−06 Molar; GI50 (IGROV-ET): 1.29 µM; TGI IGROV-ET (IGROV-ET): 2.29E−06 Molar; CC50 (IGROV-ET): 4.09 µM; GI50 (HeLa): 4.18 µM; TGI HELA (HeLa): 6.63E−06 Molar; CC50 (HeLa): 6.63 µM; GI50 (HeLa-APL): 2.75 µM; TGI HELA-APL (HeLa-APL): 6.63E−06 Molar; CC50 (HeLa-APL): 6.63 µM; GI50 (K-562): 1.27 µM; TGI K-562 (K-562): 2.47E−06 Molar; CC50 (K-562): 4.82 µM; GI50 (PANC-1): 4.1 µM; TGI PANC-1 (PANC-1): 6.63E−06 Molar; CC50 (PANC-1): 6.63 µM
C/C=C1\NC(=O)[C@H](Cc2ccccc2)NC(=O)[C@@H](C(C)C)NC(=O)[C@@H]([C@@H](C)CC)NC(=O)[C@H](NC(=O)[C@H](NC(=O)[C@H](CCCN)NC(=O)[C@H]2CCCN2C(=O)[C@H](NC(=O)[C@@H](NC(=O)[C@@H](NC(=O)[C@@H](CCC(N)=O)NC(=O)CCCC(C)C)[C@@H](C)O)C(C)C)C(C)C)[C@@H](C)CC)[C@@H](C)OC(=O)[C@H](C(C)C)NC1=O [Compound 40, [D-Gln^13]-KF]	7.83E−07 Molar	0.318 µM	2.45 µM	1.22 µM	2.27E−06 Molar	4.2 µM	1.87E−06 Molar	0.949 µM	3.69 µM	0.664 µM	1.41E−06 Molar	2.98 µM	0.267 µM	8.23E−07 Molar	2.23 µM	1.79 µM	5.24 µM	3.06E−06 Molar	1.04 µM	3.62 µM	TGI IGROV (IGROV-1): 1.94E−06 Molar; GI50 (IGROV-ET): 1.31 µM; TGI IGROV-ET (IGROV-ET): 2.24E−06 Molar; CC50 (IGROV-ET): 3.79 µM; GI50 (HeLa): 0.642 µM; TGI HELA (HeLa): 1.58E−06 Molar; CC50 (HeLa): 3.86 µM; GI50 (HeLa-APL): 2.28 µM; TGI HELA-APL (HeLa-APL): 5.94E−06 Molar; CC50 (HeLa-APL): 6.64 µM; GI50 (K-562): 1.23 µM; TGI K-562 (K-562): 2.34E−06 Molar; CC50 (K-562): 4.42 µM; GI50 (PANC-1): 0.13 µM; TGI PANC-1 (PANC-1): 3.01E−07 Molar; CC50 (PANC-1): 0.863 µM
C/C=C1\NC(=O)[C@H](Cc2ccccc2)NC(=O)[C@@H](C(C)C)NC(=O)[C@@H]([C@@H](C)CC)NC(=O)[C@H](NC(=O)[C@H](NC(=O)[C@H](CCCN)NC(=O)[C@H]2CCCN2C(=O)[C@H](NC(=O)[C@@H](NC(=O)[C@H](C)NC(=O)CCCC(C)C)C(C)C)C(C)C)[C@@H](C)CC)[C@@H](C)OC(=O)[C@H](C(C)C)NC1=O [Compound 52, [Ala^12, noD-Val^13]-KF] ({Hexanoyl(5-Me)}-AV[dV][dP][Orn][d(aIle)][d(aThr)][d(aIle)][dV]F[Dhb]V; ester 7-C)	7.41E−06 Molar	7.41 µM	7.41 µM	7.41 µM	7.41E−06 Molar	7.41 µM	7.41E−06 Molar	7.41 µM	7.41 µM	7.41 µM	7.41E−06 Molar	7.41 µM	7.41 µM	7.41E−06 Molar	7.41 µM	7.41 µM	7.41 µM	7.41E−06 Molar	7.41 µM	7.41 µM	TGI IGROV (IGROV-1): 7.41E−06 Molar; GI50 (IGROV-ET): 3.67 µM; TGI IGROV-ET (IGROV-ET): 7.41E−06 Molar; CC50 (IGROV-ET): 7.41 µM; GI50 (HeLa): 6.18 µM; TGI HELA (HeLa): 7.41E−06 Molar; CC50 (HeLa): 7.41 µM; GI50 (HeLa-APL): 0.0179 µM; TGI HELA-APL (HeLa-APL): 7.41E−06 Molar; CC50 (HeLa-APL): 7.41 µM; GI50 (K-562): 7.41 µM; TGI K-562 (K-562): 7.41E−06 Molar; CC50 (K-562): 7.41 µM; GI50 (PANC-1): 6.64 µM; TGI PANC-1 (PANC-1): 7.41E−06 Molar; CC50 (PANC-1): 7.41 µM
C/C=C1\NC(=O)[C@H](Cc2ccccc2)NC(=O)[C@@H](C(C)C)NC(=O)[C@@H]([C@@H](C)CC)NC(=O)[C@H](NC(=O)[C@H](NC(=O)[C@H](CCCN)NC(=O)[C@H]2CCCN2C(=O)[C@H](NC(=O)[C@@H](NC(=O)CNC(=O)CCCC(C)C)C(C)C)C(C)C)[C@@H](C)CC)[C@@H](C)OC(=O)[C@H](C(C)C)NC1=O [Compound 53, [Gly^12, noD-Val^13]-KF] ({Hexanoyl(5-Me)}-GV[dV][dP][Orn][d(aIle)][d(aThr)][d(aIle)][dV]F[Dhb]V; ester 7-C)	7.49E−06 Molar	7.49 µM	7.49 µM	7.49 µM	7.49E−06 Molar	7.49 µM	7.49E−06 Molar	7.49 µM	7.49 µM	5.29 µM	7.49E−06 Molar	7.49 µM	7.49 µM	7.49E−06 Molar	7.49 µM	7.49 µM	7.49 µM	7.49E−06 Molar	7.49 µM	7.49 µM	TGI IGROV (IGROV-1): 7.49E−06 Molar; GI50 (IGROV-ET): 3.31 µM; TGI IGROV-ET (IGROV-ET): 7.49E−06 Molar; CC50 (IGROV-ET): 7.49 µM; GI50 (HeLa): 7.49 µM; TGI HELA (HeLa): 7.49E−06 Molar; CC50 (HeLa): 7.49 µM; GI50 (HeLa-APL): 7.49 µM; TGI HELA-APL (HeLa-APL): 7.49E−06 Molar; CC50 (HeLa-APL): 7.49 µM; GI50 (K-562): 7.49 µM; TGI K-562 (K-562): 7.49E−06 Molar; CC50 (K-562): 7.49 µM; GI50 (PANC-1): 4.17 µM; TGI PANC-1 (PANC-1): 7.49E−06 Molar; CC50 (PANC-1): 7.49 µM
